Measurements: paper PMC5513037, “Examining the influence of specificity ligands and ATP-competitive ligands on the overall effectiveness of bivalent kinase inhibitors” (Proteome Science, 2017)

Experiments:
Assay in all cases: KAM-matrix competition in K562 lysate;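 on 0.001 uM KAM: median log10 fold change of treatment over DMSO control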;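 on 0.01 uM KAM: median log10 fold change of treatment over DMSO control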;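 on 0.1 uM KAM: median log10 fold change of treatment over DMSO control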;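 on 1 uM KAM: median log10 fold change of treatment over DMSO control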;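 on 10 uM KAM: median log10 fold change of treatment over DMSO control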
Type in all cases: binding
[1] = biological target: T1, LIMK2 (Homo sapiens, UniProt P53671);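 on 0.001 uM KAM: median log10 fold change of treatment over DMSO control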;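 on 0.01 uM KAM: median log10 fold change of treatment over DMSO control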;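 on 0.1 uM KAM: median log10 fold change of treatment over DMSO control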;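 on 1 uM KAM: median log10 fold change of treatment over DMSO control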;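 on 10 uM KAM: median log10 fold change of treatment over DMSO control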
T1 construct: endogenous in cells; host or cells: K562
Description: (§1) Supplement 12953_2017_125_MOESM1_ESM.zip/MS_Supp Info.xlsx, sheet "KAM" | column: 10 uM KAM; 1 uM KAM; 0.1 uM KAM; 0.01 uM KAM; 0.001 uM KAM; RB50

[2] = biological target: T2, IGF1R (Homo sapiens, UniProt P08069)
T2 construct: K562 cell pellets were thawed on ice and resuspended in cold Lysis buffer; endogenous in cells; host or cells: K562
Description: as §1

[3] = biological target: T3, CDK12 (Homo sapiens, UniProt Q9NYV4)
T3 construct: endogenous in cells; host or cells: K562
Description: as §1

[4] = biological target: T4, KIT (Homo sapiens, UniProt P10721);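 on 0.001 uM KAM: median log10 fold change of treatment over DMSO control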;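 on 0.01 uM KAM: median log10 fold change of treatment over DMSO control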;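 on 0.1 uM KAM: median log10 fold change of treatment over DMSO control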;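 on 1 uM KAM: median log10 fold change of treatment over DMSO control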;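 on 10 uM KAM: median log10 fold change of treatment over DMSO control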
T4 construct: endogenous in cells; host or cells: K562 cells (combined S0.8 and P0.8 lysate)
Description: as §1

[5] = biological target: T5, MAP4K2 (Homo sapiens, UniProt Q12851)
T5 construct: endogenous in cells; host or cells: K562
T5 sequence (Q12851 1-820): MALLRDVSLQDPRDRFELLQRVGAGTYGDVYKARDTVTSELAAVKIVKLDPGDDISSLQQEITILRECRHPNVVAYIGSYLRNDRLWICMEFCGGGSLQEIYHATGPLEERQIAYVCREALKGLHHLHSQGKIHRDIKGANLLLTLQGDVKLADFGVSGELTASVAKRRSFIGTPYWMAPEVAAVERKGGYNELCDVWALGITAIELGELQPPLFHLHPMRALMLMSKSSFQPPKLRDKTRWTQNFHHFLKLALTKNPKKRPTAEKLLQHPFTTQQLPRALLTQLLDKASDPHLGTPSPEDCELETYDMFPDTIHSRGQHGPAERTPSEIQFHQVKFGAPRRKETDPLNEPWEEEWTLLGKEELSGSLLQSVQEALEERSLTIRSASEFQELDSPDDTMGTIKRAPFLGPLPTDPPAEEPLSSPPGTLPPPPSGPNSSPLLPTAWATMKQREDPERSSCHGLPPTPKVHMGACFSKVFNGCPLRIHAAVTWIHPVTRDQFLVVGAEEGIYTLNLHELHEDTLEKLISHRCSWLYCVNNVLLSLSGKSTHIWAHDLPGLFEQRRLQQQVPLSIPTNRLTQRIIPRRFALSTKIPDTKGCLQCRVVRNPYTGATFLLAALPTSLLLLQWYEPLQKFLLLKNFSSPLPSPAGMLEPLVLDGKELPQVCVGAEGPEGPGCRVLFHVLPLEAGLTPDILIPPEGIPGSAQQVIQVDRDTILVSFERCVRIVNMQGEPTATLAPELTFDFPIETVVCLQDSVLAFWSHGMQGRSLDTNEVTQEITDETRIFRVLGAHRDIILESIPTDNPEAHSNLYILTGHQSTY
Description: as §1

[6] = biological target: T6, EIF2AK4 (Homo sapiens, UniProt Q9P2K8);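 on 0.001 uM KAM: median log10 fold change of treatment over DMSO control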;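 on 0.01 uM KAM: median log10 fold change of treatment over DMSO control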;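 on 0.1 uM KAM: median log10 fold change of treatment over DMSO control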;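 on 1 uM KAM: median log10 fold change of treatment over DMSO control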;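 on 10 uM KAM: median log10 fold change of treatment over DMSO control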
T6 construct: endogenous in cells; host or cells: K562
Description: as §1

[7] = biological target: T7, KSR1 (Homo sapiens, UniProt Q8IVT5);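 on 0.001 uM KAM: median log10 fold change of treatment over DMSO control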;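 on 0.01 uM KAM: median log10 fold change of treatment over DMSO control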;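 on 0.1 uM KAM: median log10 fold change of treatment over DMSO control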;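 on 1 uM KAM: median log10 fold change of treatment over DMSO control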;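 on 10 uM KAM: median log10 fold change of treatment over DMSO control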
T7 construct: endogenous in cells; host or cells: K562
T7 sequence (Q8IVT5 1-923): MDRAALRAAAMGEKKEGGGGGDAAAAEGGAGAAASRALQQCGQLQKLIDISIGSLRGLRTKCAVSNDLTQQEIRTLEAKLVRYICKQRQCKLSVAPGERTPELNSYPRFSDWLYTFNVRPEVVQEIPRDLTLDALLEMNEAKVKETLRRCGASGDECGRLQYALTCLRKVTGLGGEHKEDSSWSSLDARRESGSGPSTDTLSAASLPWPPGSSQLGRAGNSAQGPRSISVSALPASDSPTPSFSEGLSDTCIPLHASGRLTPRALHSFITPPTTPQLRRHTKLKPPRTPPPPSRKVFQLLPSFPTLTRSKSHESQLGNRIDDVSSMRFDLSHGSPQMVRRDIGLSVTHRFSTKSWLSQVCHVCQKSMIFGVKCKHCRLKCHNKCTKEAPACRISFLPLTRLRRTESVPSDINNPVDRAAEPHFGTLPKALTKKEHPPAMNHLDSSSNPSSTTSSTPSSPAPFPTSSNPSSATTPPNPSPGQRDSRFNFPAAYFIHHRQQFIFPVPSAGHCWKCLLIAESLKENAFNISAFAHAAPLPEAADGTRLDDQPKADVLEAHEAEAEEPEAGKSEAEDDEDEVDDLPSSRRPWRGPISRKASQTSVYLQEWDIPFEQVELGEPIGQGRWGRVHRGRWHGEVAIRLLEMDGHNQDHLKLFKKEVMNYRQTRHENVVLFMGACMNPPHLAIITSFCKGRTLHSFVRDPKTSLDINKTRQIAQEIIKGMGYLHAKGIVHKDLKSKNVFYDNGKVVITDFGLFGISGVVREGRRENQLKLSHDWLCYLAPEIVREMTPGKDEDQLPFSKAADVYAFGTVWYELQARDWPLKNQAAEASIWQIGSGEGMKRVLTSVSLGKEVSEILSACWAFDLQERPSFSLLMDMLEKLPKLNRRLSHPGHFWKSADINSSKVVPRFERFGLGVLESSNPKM
Description: as §1

[8] = biological target: T8, BRD2 (Homo sapiens, UniProt P25440)
T8 construct: endogenous in cells; host or cells: K562
Description: as §1

[9] = KAM 0.001-10 uM, read-out: RB50 (the source's name)
[10] = read-out: RB50 (the source's name)

T6 sequence (Q9P2K8 whole entry): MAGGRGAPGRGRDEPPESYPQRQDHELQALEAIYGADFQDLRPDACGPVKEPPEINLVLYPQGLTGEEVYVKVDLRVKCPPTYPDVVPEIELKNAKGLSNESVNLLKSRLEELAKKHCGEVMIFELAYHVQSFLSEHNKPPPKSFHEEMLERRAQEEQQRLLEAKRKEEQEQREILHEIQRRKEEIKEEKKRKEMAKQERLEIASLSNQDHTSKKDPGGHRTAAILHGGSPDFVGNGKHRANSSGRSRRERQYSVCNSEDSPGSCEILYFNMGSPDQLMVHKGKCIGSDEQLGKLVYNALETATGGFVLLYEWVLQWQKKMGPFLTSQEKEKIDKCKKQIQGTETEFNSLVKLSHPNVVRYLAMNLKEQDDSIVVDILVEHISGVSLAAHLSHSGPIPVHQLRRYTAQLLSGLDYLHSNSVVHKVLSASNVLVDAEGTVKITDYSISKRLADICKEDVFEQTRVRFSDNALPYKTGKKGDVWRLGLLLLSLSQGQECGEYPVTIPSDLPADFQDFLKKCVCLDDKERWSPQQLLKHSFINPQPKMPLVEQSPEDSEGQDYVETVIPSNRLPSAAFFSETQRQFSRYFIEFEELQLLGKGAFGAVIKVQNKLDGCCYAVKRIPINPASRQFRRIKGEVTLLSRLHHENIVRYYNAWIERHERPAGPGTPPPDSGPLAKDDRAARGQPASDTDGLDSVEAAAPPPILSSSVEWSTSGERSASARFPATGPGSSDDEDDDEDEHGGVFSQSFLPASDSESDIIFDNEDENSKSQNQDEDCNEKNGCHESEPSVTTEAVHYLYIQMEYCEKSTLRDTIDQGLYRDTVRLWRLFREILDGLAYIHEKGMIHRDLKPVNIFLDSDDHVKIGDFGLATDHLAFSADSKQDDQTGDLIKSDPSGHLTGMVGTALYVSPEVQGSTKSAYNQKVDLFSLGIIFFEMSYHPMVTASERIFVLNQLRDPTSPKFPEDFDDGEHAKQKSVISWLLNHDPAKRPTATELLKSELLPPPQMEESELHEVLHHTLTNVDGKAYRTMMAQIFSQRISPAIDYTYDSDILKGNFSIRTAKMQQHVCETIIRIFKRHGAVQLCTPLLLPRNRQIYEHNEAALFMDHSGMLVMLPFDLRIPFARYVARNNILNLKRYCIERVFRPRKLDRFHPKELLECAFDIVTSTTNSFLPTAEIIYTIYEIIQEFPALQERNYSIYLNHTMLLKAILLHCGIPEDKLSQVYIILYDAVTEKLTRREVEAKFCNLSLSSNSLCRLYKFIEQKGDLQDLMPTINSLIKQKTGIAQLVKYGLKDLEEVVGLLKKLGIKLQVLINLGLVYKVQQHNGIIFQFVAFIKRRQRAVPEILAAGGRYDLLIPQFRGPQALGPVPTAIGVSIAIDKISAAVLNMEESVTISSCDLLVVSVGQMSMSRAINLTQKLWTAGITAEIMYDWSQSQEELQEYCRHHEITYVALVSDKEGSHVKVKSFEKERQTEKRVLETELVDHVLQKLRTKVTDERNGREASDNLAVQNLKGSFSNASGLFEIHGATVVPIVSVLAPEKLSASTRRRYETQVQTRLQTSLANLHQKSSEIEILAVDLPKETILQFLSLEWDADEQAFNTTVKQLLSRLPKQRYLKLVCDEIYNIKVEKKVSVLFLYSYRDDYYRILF
T1 sequence (P53671 whole entry): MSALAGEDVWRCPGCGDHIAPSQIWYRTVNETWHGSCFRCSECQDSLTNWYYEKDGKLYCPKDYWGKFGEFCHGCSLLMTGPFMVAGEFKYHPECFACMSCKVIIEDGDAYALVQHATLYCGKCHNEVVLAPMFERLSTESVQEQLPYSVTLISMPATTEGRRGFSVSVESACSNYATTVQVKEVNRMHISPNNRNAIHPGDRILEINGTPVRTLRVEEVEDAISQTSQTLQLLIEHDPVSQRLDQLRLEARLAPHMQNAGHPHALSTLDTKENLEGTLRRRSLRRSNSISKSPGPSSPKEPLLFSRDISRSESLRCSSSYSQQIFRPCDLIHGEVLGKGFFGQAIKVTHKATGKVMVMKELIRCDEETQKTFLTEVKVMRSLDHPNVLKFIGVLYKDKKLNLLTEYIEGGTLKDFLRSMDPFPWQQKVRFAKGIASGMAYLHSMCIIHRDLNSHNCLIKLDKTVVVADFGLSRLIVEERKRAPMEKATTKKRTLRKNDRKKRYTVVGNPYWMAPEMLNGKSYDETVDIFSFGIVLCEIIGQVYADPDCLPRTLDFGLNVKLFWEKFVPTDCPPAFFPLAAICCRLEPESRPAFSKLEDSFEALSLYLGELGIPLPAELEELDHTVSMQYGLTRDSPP
T2 sequence (P08069 741-1367 limits assumed): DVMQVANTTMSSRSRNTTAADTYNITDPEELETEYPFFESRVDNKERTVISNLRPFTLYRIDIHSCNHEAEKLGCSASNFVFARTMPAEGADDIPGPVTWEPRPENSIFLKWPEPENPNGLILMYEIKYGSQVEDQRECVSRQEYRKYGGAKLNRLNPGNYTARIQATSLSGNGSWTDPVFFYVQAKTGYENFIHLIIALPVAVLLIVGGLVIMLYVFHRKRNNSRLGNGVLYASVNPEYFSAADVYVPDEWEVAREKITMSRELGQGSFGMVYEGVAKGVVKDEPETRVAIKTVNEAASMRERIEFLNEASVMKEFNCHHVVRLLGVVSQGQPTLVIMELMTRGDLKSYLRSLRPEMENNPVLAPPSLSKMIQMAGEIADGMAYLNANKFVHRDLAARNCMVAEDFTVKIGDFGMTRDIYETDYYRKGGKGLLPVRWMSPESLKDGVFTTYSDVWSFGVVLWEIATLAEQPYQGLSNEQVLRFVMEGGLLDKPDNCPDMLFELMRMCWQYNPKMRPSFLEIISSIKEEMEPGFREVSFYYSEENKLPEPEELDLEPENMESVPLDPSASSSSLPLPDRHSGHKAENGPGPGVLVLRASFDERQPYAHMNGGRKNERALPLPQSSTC
T2 sequence (P08069 31-736 partner limits assumed): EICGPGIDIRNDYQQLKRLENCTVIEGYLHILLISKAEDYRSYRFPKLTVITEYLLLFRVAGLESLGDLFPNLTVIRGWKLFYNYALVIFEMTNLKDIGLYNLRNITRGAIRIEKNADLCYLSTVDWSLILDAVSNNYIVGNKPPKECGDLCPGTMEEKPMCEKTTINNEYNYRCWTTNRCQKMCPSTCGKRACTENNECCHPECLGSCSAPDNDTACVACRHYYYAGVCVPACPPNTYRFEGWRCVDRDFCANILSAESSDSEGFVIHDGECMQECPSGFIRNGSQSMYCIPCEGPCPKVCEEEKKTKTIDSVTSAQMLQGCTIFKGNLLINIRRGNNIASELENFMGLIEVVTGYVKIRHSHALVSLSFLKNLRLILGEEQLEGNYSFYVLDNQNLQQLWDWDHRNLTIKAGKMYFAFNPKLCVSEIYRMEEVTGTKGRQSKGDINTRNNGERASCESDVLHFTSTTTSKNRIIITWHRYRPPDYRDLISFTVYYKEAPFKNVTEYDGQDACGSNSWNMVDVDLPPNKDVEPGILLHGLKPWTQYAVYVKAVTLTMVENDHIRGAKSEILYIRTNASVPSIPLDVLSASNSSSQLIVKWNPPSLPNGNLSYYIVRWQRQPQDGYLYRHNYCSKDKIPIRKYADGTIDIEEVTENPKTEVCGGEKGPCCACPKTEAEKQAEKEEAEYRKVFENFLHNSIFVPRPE
T8 sequence (P25440 whole entry): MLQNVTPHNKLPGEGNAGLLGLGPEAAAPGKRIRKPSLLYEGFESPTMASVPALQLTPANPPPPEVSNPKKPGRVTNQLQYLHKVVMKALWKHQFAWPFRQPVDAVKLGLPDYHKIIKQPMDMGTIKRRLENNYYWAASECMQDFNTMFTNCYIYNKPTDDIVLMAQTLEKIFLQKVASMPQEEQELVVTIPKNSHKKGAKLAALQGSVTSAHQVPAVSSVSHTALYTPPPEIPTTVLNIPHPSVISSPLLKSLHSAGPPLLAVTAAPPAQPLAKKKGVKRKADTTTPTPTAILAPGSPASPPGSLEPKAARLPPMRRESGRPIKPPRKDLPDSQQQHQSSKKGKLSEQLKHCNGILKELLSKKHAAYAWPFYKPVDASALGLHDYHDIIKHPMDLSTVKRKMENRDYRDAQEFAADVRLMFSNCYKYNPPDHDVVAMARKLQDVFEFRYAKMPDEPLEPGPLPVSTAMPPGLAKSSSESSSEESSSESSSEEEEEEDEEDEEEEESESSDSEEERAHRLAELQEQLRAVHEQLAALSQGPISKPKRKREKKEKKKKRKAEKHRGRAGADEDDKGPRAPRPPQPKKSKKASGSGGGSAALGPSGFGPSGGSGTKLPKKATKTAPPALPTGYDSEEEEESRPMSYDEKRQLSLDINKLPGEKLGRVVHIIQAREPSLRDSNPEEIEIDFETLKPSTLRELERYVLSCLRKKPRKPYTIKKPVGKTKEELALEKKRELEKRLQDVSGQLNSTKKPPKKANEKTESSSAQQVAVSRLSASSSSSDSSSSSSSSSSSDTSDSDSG

N#CCc1ccc(Nc2nc(NCCCN)cc(Nc3cc(C4CC4)[nH]n3)n2)cc1 [KAM]
IC50 [1, 9]: > 10000 nM
0.001 uM KAM ([1]; relative to 0 uM KAM = 0): -0.04927
0.01 uM KAM ([1]; relative to 0 uM KAM = 0): -0.08611
0.1 uM KAM ([1]; relative to 0 uM KAM = 0): -0.1176
1 uM KAM ([1]; relative to 0 uM KAM = 0): -0.1595
10 uM KAM ([1]; relative to 0 uM KAM = 0): 0.03187
median Log10 fold change ([2]; 0.001 uM KAM): -0.01905
median Log10 fold change ([2]; 0.01 uM KAM): -0.03637
median Log10 fold change ([2]; 0.1 uM KAM): -0.1832
median Log10 fold change ([2]; 1 uM KAM): -0.3556
median Log10 fold change ([2]; 10 uM KAM): -0.4489
IC50 [2, 10]: 696 nM
median Log10 fold change ([3]; 0.001 uM KAM): 0.006765
median Log10 fold change ([3]; 0.01 uM KAM): 0.002685
median Log10 fold change ([3]; 0.1 uM KAM): -0.1288
median Log10 fold change ([3]; 1 uM KAM): -0.2742
median Log10 fold change ([3]; 10 uM KAM): -0.4096
IC50 [3, 10]: 1570 nM
IC50 [4, 9]: > 10000 nM
0.001 uM KAM ([4]; relative to 0 uM KAM = 0): -0.03484
0.01 uM KAM ([4]; relative to 0 uM KAM = 0): -0.02696
0.1 uM KAM ([4]; relative to 0 uM KAM = 0): -0.08182
1 uM KAM ([4]; relative to 0 uM KAM = 0): -0.1617
10 uM KAM ([4]; relative to 0 uM KAM = 0): -0.1565
median Log10 fold change ([5]; 0.001 uM KAM): -0.01936
median Log10 fold change ([5]; 0.01 uM KAM): -0.0303
median Log10 fold change ([5]; 0.1 uM KAM): -0.2006
median Log10 fold change ([5]; 1 uM KAM): -0.2485
median Log10 fold change ([5]; 10 uM KAM): -0.341
IC50 [5, 10]: 2230 nM
IC50 [6, 9]: > 10000 nM
0.001 uM KAM ([6]; relative to 0 uM KAM = 0): -0.0489
0.01 uM KAM ([6]; relative to 0 uM KAM = 0): 0.01964
0.1 uM KAM ([6]; relative to 0 uM KAM = 0): -0.07688
1 uM KAM ([6]; relative to 0 uM KAM = 0): -0.1098
10 uM KAM ([6]; relative to 0 uM KAM = 0): -0.203
IC50 [7, 9]: > 10000 nM
0.001 uM KAM ([7]; relative to 0 uM KAM = 0): -0.01848
0.01 uM KAM ([7]; relative to 0 uM KAM = 0): -0.01741
0.1 uM KAM ([7]; relative to 0 uM KAM = 0): -0.1182
1 uM KAM ([7]; relative to 0 uM KAM = 0): -0.1931
10 uM KAM ([7]; relative to 0 uM KAM = 0): -0.2362
median Log10 fold change ([8]; 0.001 uM KAM): -0.02696
median Log10 fold change ([8]; 0.01 uM KAM): -0.0008346
median Log10 fold change ([8]; 0.1 uM KAM): -0.172
median Log10 fold change ([8]; 1 uM KAM): -0.286
median Log10 fold change ([8]; 10 uM KAM): -0.3099
IC50 [8, 10]: 1890 nM
